Consider four compounds from patent publication US20240299584A1, “NON-CODING RNA PROTECTING AGAINST HEART FAILURE” (MEDIZINISCHE HOCHSCHULE HANNOVER, priority 2019, published 2024).

Data set [1] relates to HL-1 cells. Description: RT-qPCR expression in HL-1 cells. Format: cell-based, mouse. The following applies: for expression of circ-Insr: 24 h, epirubicin 1 and 5 μM, daunorubicin 1.25 and 2.5 μM, paclitaxel 0.1 and 0.5 μM. As for the experimental part:
HL-1 cells were cultured in Claycomb medium together with 10% FBS, norepinephrine, L-Glutamine and pencillin/streptomycin as manufacturer's protocol. 3T3 and RAW264.7 cells were cultured in DMEM with 10% FBS and pencillin/streptomycin. Neonatal rat cardiomyocytes (NRCM) were isolated from one to three-day old rat babies by using the Neonatal Heart Dissociation Kit (Miltenyi). Human iPSC derived cardiomyocytes (hiPSC-cm) were differentiated at the lab of IMTTS. […] NRCM and hipsc-CM were transduced by AAV6 (MOI: 1*10^4) for 72 hours.
(§1) RNA isolation from cell culture and heart tissue was done using Trifast (Peqlab) as per the manufacturer's instructions. Isolated RNA (500 ng-1000 ng) was reversed transcribed with random primer using iScript Select cDNA synthesis kit (Biorad). Real-Time quantative PCR was done with iQ SYBR Green mix (Biorad) on C1000 Touch Thermocycler (Biorad) using specific primer pairs. For amplification of circular RNAs, divergent primers were used while normal linear transcripts were amplified by convergent primers as usual. For RNase R resistant assay RNA was incubated with RNase R (Biozym Scientific) at 37° C. for 10 minutes and heat […] at 95° C. for three minutes. RNA was then reverse transcribed and amplified by specific PCR primers as mentioned before.
Background: Real-time PCR tracks product formation cycle by cycle.

Data set [2] in a line: Body weight changes in doxorubicin cardiotoxicity mouse model. Format: in vivo. To be noted: doxorubicin and vehicle treated mice.
Experimental: (§5) The AAV-circINSR construct was packaged into AAV9 and injected adult male mice (12 weeks) with a single dose of 2×10^12 viral genomes/mouse or with the same amount of AAV9-empty control vectors. After two weeks to allow full AAV mediated gene expression, the mice received a cumulative dose of 25 mg/kg/bw doxorubicin over a course of 5 weeks and were sacrificed 1 week later after echocardiography was performed (FIG. 4A).
(§6) C57BL/6 N mice of 8 weeks of age were injected (intraperitoneally) with doxorubicin at a dose of 5 mg/kg once a week for consecutive 5 weeks. One week later after the last doxorubicin treatment, echocardiography data were recorded by an independent blinded researcher using the Vevo 2100 system (Fujifilm Visulasonics, Inc). […] Echocardiography data were analyzed using standard imaging protocols (M-mode and B-mode) for global cardiac volumes and functioning using the Vevostrain software (Fujifilm Visulasonics, Inc). […] AAV9 (adeno-associated virus serotype 9) was injected (intravenously) 2 weeks before first doxorubicin injection. Animal experiments were randomized and blinded with an internal number.
For data set [3], the system named is mouse heart. Nature of the data set: RT-qPCR expression analysis in mouse heart tissue. The data set is classed as in vivo. Here is the method:
as §1

Data set [4] has as its system circulating circINSR. Nature of the data set: circINSR level in mouse plasma. The data set is classed as in vivo. To be noted: doxorubicin vs PBS control. From the text:
NcRNAs can be released into the extra-cellular space through passive mechanisms (e.g. necrosis of cells) or actively within secreted microvesicles^20. Since they can be readily isolated and measured from body fluids such as blood, these circulating ncRNAs have gained much attention as potential biomarkers for various diseases^21, 22. Indeed, ot was possible to detect circINSR in human and murine plasma (FIG. 9A,B). Strikingly, levels of circulating circINSR were diminished in mice treated with doxorubicin, which warrants further investigation of circINSR as a marker for anthracycline-related heart failure. Then the presence of circINSR in exosomes isolated from HL-1 cell culture supernatants was tested. […] To further corroborate the findings, a circINSR knock-out cell line was generated. Using a dual guideRNA CRISPR/Cas9 approach the majority of the circINSR forming exon was excised (FIG. 18A,B). Expectedly, this not only abrogated circINSR expression but also INSR protein expression (FIG. 18C,D). Then this cell line was used to overexpress circINSR via transfection with pcDNA3.1.
RNA isolation from cell culture and heart tissue was done using Trifast (Peqlab) as per the manufacturer's instructions. Isolated RNA (500 ng-1000 ng) was reversed transcribed with random primer using iScript Select cDNA synthesis kit (Biorad). […]

The test system of data set [5] is apoptotic cardiomyocytes. Description: TUNEL and cardiac troponin T co-staining of heart sections. The data set is classed as in vivo, mouse. The following applies: transversal heart sections, doxorubicin model; circINSR given as AAV9. Here is the method:
(§2) In addition to apoptosis, doxorubicin is known to cause cardiomyocyte atrophy^12 (G). Thus, histopathology analyses were performed on transversal heart section.
Cells were fixed with 4% paraformaldehyde for twenty minutes at room temperature and then permeabilized with ice-cold 0.1% Triton-X-100 in PBS for two minutes at room temperature. Next cells were incubated with enzyme labelling solution provided with In Situ cell death detection kit (Roche) for 1 hour at 37° C. For negative staining, enzyme was not added to the labelling solution. Cells were then washed and incubated with Dapi for 15 minutes. To specifically label neonatal rat cardiomyocytes and hipsc-CM, cells were co-stained with cardiac Troponin T (Thermofisher) after Tunel staining. Images were taken with Nikon Eclipse Ti microscope and images were analyzed with NIS Elements. For analysis in each case, ten different images were analyzed from different regions and average value was taken. Similarly, cryosections of heart were also processed for staining. Numerous images covering complete heart section was taken and Tunel positive nuclei were counted in each field. Average value for each heart was calculated.

Data set [6] relates to cardiomyocytes. Nature of the data set: Cardiomyocyte size on wheat germ agglutinin stained heart sections. The data set is classed as in vivo, mouse. To be noted: WGA stained heart sections, doxorubicin model; circINSR given as AAV9. As for the experimental part:
as §2
Cryosections of heart were stained with Alexa Fluor 488 labelled wheat germ agglutinin (Invitrogen) and dapi. Images were taken with Nikon Eclipse Ti microscope and images were analyzed with NIS Elements. For each heart 5 to 10 images were randomly taken from different regions of the section and minimum two hundred cells were measured and average value was taken for each heart.

Data set [7] deals with HL-1 cells. Nature of the data set: Annexin V & 7-AAD staining (apoptosis). To be noted: HL-1 cells treated with doxorubicin 0.25 μM 48 h. Format: cell-based, mouse. As for the experimental part: (§3) HL-1 cells were cultured in Claycomb medium together with 10% FBS, norepinephrine, L-Glutamine and pencillin/streptomycin as manufacturer's protocol. 3T3 and RAW264.7 cells were cultured in DMEM with 10% FBS and pencillin/streptomycin. Neonatal rat cardiomyocytes (NRCM) were isolated from one to three-day old rat babies by using the Neonatal Heart Dissociation Kit (Miltenyi). Human iPSC derived cardiomyocytes (hiPSC-cm) were differentiated at the lab of IMTTS. All the cells were treated with 0.25 μM Doxorubicin (Sigma-Aldrich) for 48 hours. circ-Insr siRNA (Eurofins), in vitro circular RNA and overexpression plasmid were transfected with Lipofectamine 2000 (Life Technologies) in OptiMEM medium. NRCM and hipsc-CM were transduced by AAV6 (MOI: 1*10^4) for 72 hours.
FlowCellect Annexin Red kit (Millipore) was used to stain apoptotic cells as per the manufacturer instruction. Briefly, cells were seeded in 12 well plate and next day treated with 0.25 μM Doxorubicin in normal medium with 10% FBS for forty-eight hours. Then cells were trypsinized and harvested and stained with Annexin-V for 15 minutes at 37° C. in 1× assay buffer. Annexin-V stained cells were centrifuged and washed with 1× assay buffer. Next cells were incubated with 7-AAD for 5 minutes and acquired on Guava (Millipore) flow cytometer. Data was analyzed with FLOWJO software.

Data set [8] deals with HL-1 cells. Description: WST-1 assay (cell viability). Format: cell-based, mouse. To be noted: HL-1 cells treated with doxorubicin 0.25 μM 48 h. Here is the method: as §3
WST-1 assay was performed using Cell Proliferation Reagent WST-1 (Roche) as per the manufacturer instruction. Briefly, HL-1 cells were seeded in 96 well plate and next day treated with 0.25 μM Doxorubicin in normal medium with 10% FBS for forty-eight hours. Next, 10 μL WST1 reagent was added and incubated for 1 hour followed by the absorbance measurement (450 nm) at HT Synergy (Biotek) plate reader.
A general note: Tetrazolium dyes change colour on reduction, which living cells bring about.

The subject of data set [9] is HL-1 cells. Description: mtDNA copy number measurement. Format: cell-based, mouse. To be noted: doxorubicin 0.25 μM 48 h, circ-Insr by overexpression plasmid. Here is the method: (§4) Based on the results of the foregoing examples, it was reasoned that circ-Insr could interact with SSBP1. To further confirm the interaction between circ-Insr and SSBP1, siRNA mediated circ-Insr knock-down was applied in HL-1 cells. Next, RNA pulldown was performed with circ-Insr and scramble biotinylated probes. RT-qPCR confirmed that decrease of circ-Insr appeared both in input and circ-Insr pulldown group (FIG. 23A). […] Therefore, we assumed that circ-Insr is a cofactor of SSBP1 resulting in the regulation of mitochondrial function in cardiomyocytes by stabilizing mtDNA. […] Furthermore, mito-damage assay was applied to measure the changes in mitochondrial membrane potential (MMP). […] Next, we co-transfected HL-1 cells with pcDNA-circ-Insr and SSBP1 siRNA and examined cell viability using the WST assay to explore whether SSBP1 participated in the circ-Insr overexpression-mediated therapy of doxorubicin-cardiotoxicity. RT-qPCR indicated SSBP1 siRNA could downregulate endogenous SSBP1 expression (FIG. 23G).
The ratio of mtDNA to genomic DNA was calculated by dividing copies of CYTB with copies of ACTB in each experiment (Li J, Chan M C, Yu Y, Bei Y H, Chen P, Zhou Q L, et al. miR-29b contributes to multiple types of muscle atrophy. Nature communications. 2017; 8). […] Fluorescence was measured during the last step of each cycle using the SYBR channel. […]

The test system of data set [10] is HL-1 cells. Description: Mito-damage assay, mitochondrial membrane potential. The data set is classed as cell-based, mouse. The following applies: doxorubicin 0.25 μM 48 h. As for the experimental part:
as §4

The conditions of data set [11]: human patients; cited from earlier work.
Data set [12] has as its system C57BL/6 N mice. Nature of the data set: Echocardiography in mouse model of chronic doxorubicin-induced cardiotoxicity.
Experimental: as §5, §6
[13] abbreviates: doxorubicin treated mice, in words.

SMILES strings stand for the structures. “Also recorded” adds a separate entry of the source.

For the compound `COc1cccc2c1C(=O)c1c(O)c3c(c(O)c1C2=O)C[C@@](O)(C(C)=O)C[C@@H]3O[C@H]1C[C@H](N)[C@H](O)[C@H](C)O1` [daunorubicin], the “expression of circ-Insr” value in data set [1] is given as “significant downregulation”.

As for `COc1cccc2c1C(=O)c1c(O)c3c(c(O)c1C2=O)C[C@@](O)(C(=O)CO)C[C@@H]3O[C@H]1C[C@H](N)[C@H](O)[C@H](C)O1` [doxorubicin], the body weight result in data set [2] is on record as “significantly halted the weight gain”. Moreover, the “Brca1 mRNA expression in hearts” value in data set [3] (doxorubicin treated mice vs PBS control) is “significantly lower levels”. Moreover, the “circINSR expression in heart” value in [3] (mouse heart, doxorubicin 5 mg/kg once a week for 5 weeks) is reported as “significant decrease; also recorded: downregulation”. Besides, in data set [4], the “levels of circulating circINSR” value was “diminished”. Also, the “apoptotic cardiomyocytes (TUNEL / cTNT)” value in data set [5] is recorded as “strong induction of apoptosis”. In addition, the cardiomyocyte size entry in [6] is listed as “atrophic response”. Further, in data set [7], the “apoptotic cells (Annexin V)” value is listed as “increased the number of apoptotic cells”. In [8], the “cell viability (WST-1)” value is reported as “significantly diminished; also recorded: impair”. Also, the circINSR expression result in [1] (doxorubicin 0.25 μmol/L 48 h) is recorded as “downregulation”. Moreover, the “mtDNA copy number / mtDNA content” value in data set [9] is “significantly reduced”. For the same compound, the “mitochondrial membrane potential (MMP)” value in data set [10] was “impair”. Moreover, the “underlying cause in heart transplantation patients, share of all cases” value in [11] is listed as 2-3%. Further, the “Fractional Shortening” value in data set [12] (Mean, mice with doxorubicin, cumulative 25 mg/kg over 5 weeks) is given as “significant reduction”. Moreover, in [12] (setting [13]), the “left ventricular anterior and posterior wall thickness” value is “decreased”; the left ventricular volume result is recorded as “increased”.

For `COc1cccc2c1C(=O)c1c(O)c3c(c(O)c1C2=O)C[C@@](O)(C(=O)CO)C[C@@H]3O[C@H]1C[C@H](N)[C@@H](O)[C@H](C)O1` [epirubicin], the “expression of circ-Insr” value in data set [1] is given as “significant downregulation”.

In the case of `CC(=O)O[C@H]1C(=O)[C@@]2(C)[C@H]([C@H](OC(=O)c3ccccc3)[C@]3(O)C[C@H](OC(=O)[C@H](O)[C@@H](NC(=O)c4ccccc4)c4ccccc4)C(C)=C1C3(C)C)[C@]1(OC(C)=O)CO[C@@H]1C[C@@H]2O` [paclitaxel], the “expression of circ-Insr” value in data set [1] was “no change”.
